Assays:
[1] = target: Type-1 angiotensin II receptor (Homo sapiens) (UniProt P30556); assay: AT1 Eurofins SafetyScreen44 (BI)
[2] = target: Voltage-dependent L-type calcium channel subunit alpha-1C (CA+/PAASITE) (Rattus norvegicus, UniProt P22002); assay: CA+/PAASITE Eurofins SafetyScreen44 (BI); settings: read-out: % Ctrl
[3] = target: Mitogen-activated protein kinase 15 (Homo sapiens) (UniProt Q8TD08); assay: MAPK15 (ERK7) Invitrogen Lab (UK) kinase screen (BI); settings: Compound concentration 1.0 uM
[4] = target: cAMP-dependent protein kinase catalytic subunit gamma (Homo sapiens) (UniProt P22612); assay: PRKACG (PRKAC GAM Invitrogen Lab (UK) kinase screen (BI); settings: Compound concentration 1.0 uM
[5] = target: Ephrin type-B receptor 1 (Homo sapiens) (UniProt P54762); assay: EPHB1 Invitrogen Lab (UK) kinase screen (BI); settings: Compound concentration 1.0 uM
[6] = target: NT-3 growth factor receptor (Homo sapiens) (UniProt Q16288); assay: NTRK3 Invitrogen Lab (UK) kinase screen (BI); settings: Compound concentration 1.0 uM
[7] = target: Proto-oncogene tyrosine-protein kinase receptor Ret (Homo sapiens) (UniProt P07949); assay: RET Invitrogen Lab (UK) kinase screen (BI)
[8] = target: Serine/threonine-protein kinase 33 (Homo sapiens) (UniProt Q9BYT3); assay: STK33 Invitrogen Lab (UK) kinase screen (BI); settings: Compound concentration 1.0 uM
[9] = target: Glycogen synthase kinase-3 beta (Homo sapiens) (UniProt P49841); assay: GSK3B DUNDEE kinase screen (BI); settings: Compound concentration 10.0 uM
[10] = target: cAMP-dependent protein kinase (PKA) (Homo sapiens) (UniProt P22694+P17612+P22612); assay: PKA(REC) DUNDEE kinase screen (BI); format: protein assay; settings: Compound concentration 10.0 uM
[11] = target: RAC-beta serine/threonine-protein kinase (Homo sapiens) (UniProt P31751); assay: PKB-BETA DUNDEE kinase screen (BI); settings: Compound concentration 10.0 uM
[12] = target: Rho-associated protein kinase 2 (Homo sapiens) (UniProt O75116); assay: ROCKII DUNDEE kinase screen (BI); settings: Rattus norvegicus; Compound concentration 10.0 uM
[13] = target: 5-hydroxytryptamine receptor 7 (Homo sapiens) (UniProt P34969); settings: Compound concentration 10.0 uM
[14] = target: T1, D(4) dopamine receptor (Homo sapiens) (UniProt P21917); settings: Compound concentration 10.0 uM
T1 sequence (whole entry): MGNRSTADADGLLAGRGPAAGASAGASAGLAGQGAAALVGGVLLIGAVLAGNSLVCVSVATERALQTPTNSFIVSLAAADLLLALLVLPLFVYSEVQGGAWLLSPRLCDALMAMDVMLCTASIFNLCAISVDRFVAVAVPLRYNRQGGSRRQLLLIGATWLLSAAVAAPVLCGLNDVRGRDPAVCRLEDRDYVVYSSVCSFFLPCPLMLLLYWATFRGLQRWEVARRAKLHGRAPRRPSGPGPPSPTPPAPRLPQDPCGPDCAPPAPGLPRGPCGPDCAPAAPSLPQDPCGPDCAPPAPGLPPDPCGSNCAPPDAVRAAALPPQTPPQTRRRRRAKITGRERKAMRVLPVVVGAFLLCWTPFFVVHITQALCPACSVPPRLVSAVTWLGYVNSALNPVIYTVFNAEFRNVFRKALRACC

[15] = target: Sodium-dependent serotonin transporter (Homo sapiens) (UniProt P31645); settings: Compound concentration 10.0 uM
[16] = target: B1 bradykinin receptor (Homo sapiens) (UniProt P46663)
Chymase (Homo sapiens) = Chymase (Homo sapiens) (UniProt P23946); settings: Compound concentration 10.0 uM
[17] = target: Muscarinic acetylcholine receptor (Rattus norvegicus) (UniProt P08482+P08483+P08485+P08911+P10980); settings: Compound concentration 10.0 uM
[18] = target: Interferon-induced, double-stranded RNA-activated protein kinase (Homo sapiens) (UniProt P19525); settings: Compound concentration 1.0 uM
[19] = target: Rhodopsin kinase GRK1 (Homo sapiens) (UniProt Q15835); settings: Compound concentration 1.0 uM
[20] = target: Kinase suppressor of Ras 2 (Homo sapiens) (UniProt Q6VAB6); settings: Compound concentration 1.0 uM
[21] = target: Serine/threonine-protein kinase 32C (Homo sapiens) (UniProt Q86UX6); settings: Compound concentration 1.0 uM
[22] = target: Serine/threonine-protein kinase ULK2 (Homo sapiens) (UniProt Q8IYT8); settings: Compound concentration 1.0 uM
[23] = target: RAC-gamma serine/threonine-protein kinase (Homo sapiens) (UniProt Q9Y243); settings: Compound concentration 1.0 uM
[24] = target: AMP-activated protein kinase (AMPK) alpha-1/beta-1/gamma-1 (Homo sapiens) (UniProt P54619+Q9Y478+Q13131)
[25] = target: Tyrosine-protein kinase CSK (Homo sapiens) (UniProt P41240)
[26] = target: Casein kinase II subunit alpha (Homo sapiens) (UniProt P68400)
[27] = target: Serine/threonine-protein kinase DCLK2 (Homo sapiens) (UniProt Q8N568); settings: Compound concentration 1.0 uM
[28] = target: Fibroblast growth factor receptor 2 (Homo sapiens) (UniProt P21802); settings: Compound concentration 1.0 uM
[29] = target: Interleukin-1 receptor-associated kinase 1 (Homo sapiens) (UniProt P51617); settings: Compound concentration 1.0 uM
[30] = target: Mitogen-activated protein kinase kinase kinase 3 (Homo sapiens) (UniProt Q99759); settings: Compound concentration 1.0 uM
[31] = target: Tyrosine-protein kinase Mer (Homo sapiens) (UniProt Q12866); settings: Compound concentration 1.0 uM
[32] = target: Platelet-derived growth factor receptor alpha (Homo sapiens) (UniProt P16234); settings: Compound concentration 1.0 uM
[33] = target: PI3-kinase p110-delta/p85-alpha (Homo sapiens) (UniProt P27986+O00329); settings: Compound concentration 1.0 uM
[34] = target: cAMP-dependent protein kinase catalytic subunit alpha (Homo sapiens) (UniProt P17612)
[35] = target: Protein kinase C beta type (Homo sapiens) (UniProt P05771)
[36] = Compound concentration 100.0 uM

Chain of B1 bradykinin receptor (Homo sapiens) (P46663 whole entry): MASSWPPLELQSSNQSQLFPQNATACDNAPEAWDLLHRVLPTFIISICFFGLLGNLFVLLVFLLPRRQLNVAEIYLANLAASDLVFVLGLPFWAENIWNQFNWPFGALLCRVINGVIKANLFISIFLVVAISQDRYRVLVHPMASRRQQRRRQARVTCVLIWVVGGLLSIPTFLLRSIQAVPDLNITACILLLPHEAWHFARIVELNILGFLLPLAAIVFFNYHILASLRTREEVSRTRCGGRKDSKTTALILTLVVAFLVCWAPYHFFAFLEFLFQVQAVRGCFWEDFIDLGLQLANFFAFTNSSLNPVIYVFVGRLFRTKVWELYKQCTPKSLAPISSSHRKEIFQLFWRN
Chain of AMP-activated protein kinase (AMPK) alpha-1/beta-1/gamma-1 (Homo sapiens) (P54619 whole entry): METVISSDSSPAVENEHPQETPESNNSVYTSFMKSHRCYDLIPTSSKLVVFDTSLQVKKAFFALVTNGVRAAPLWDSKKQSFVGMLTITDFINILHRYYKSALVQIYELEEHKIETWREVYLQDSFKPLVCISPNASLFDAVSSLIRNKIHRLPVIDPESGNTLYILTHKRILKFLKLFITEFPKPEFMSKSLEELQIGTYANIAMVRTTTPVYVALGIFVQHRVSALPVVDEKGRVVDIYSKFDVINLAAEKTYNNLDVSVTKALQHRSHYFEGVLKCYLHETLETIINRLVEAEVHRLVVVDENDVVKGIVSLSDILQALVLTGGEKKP
Chain of AMP-activated protein kinase (AMPK) alpha-1/beta-1/gamma-1 (Homo sapiens) (Q13131 whole entry partner): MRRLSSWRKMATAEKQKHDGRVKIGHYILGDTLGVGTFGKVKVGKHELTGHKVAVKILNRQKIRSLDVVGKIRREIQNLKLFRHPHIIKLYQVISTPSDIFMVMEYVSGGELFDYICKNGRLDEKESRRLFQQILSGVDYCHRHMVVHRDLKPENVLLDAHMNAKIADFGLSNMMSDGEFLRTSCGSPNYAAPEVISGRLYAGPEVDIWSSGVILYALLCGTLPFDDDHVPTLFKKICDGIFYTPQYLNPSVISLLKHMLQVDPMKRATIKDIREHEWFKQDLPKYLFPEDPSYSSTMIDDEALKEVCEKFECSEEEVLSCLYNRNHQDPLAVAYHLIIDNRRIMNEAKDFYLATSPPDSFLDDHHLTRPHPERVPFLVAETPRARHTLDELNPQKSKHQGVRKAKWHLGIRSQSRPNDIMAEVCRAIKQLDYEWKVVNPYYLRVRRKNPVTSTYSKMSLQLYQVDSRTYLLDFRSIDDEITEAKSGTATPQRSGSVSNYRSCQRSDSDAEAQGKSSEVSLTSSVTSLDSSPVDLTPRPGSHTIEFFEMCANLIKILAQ
Chain of AMP-activated protein kinase (AMPK) alpha-1/beta-1/gamma-1 (Homo sapiens) (Q9Y478 2-270 partner limits assumed): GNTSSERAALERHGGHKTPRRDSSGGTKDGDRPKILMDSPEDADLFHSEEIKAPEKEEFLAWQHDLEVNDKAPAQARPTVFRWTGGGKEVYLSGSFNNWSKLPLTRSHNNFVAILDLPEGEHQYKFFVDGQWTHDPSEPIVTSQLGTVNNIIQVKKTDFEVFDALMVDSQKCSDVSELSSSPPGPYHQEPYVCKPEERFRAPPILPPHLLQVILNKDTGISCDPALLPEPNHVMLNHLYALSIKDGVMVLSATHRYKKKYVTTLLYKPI
Chain of Voltage-dependent L-type calcium channel subunit alpha-1C (CA+/PAASITE) (P22002 whole entry): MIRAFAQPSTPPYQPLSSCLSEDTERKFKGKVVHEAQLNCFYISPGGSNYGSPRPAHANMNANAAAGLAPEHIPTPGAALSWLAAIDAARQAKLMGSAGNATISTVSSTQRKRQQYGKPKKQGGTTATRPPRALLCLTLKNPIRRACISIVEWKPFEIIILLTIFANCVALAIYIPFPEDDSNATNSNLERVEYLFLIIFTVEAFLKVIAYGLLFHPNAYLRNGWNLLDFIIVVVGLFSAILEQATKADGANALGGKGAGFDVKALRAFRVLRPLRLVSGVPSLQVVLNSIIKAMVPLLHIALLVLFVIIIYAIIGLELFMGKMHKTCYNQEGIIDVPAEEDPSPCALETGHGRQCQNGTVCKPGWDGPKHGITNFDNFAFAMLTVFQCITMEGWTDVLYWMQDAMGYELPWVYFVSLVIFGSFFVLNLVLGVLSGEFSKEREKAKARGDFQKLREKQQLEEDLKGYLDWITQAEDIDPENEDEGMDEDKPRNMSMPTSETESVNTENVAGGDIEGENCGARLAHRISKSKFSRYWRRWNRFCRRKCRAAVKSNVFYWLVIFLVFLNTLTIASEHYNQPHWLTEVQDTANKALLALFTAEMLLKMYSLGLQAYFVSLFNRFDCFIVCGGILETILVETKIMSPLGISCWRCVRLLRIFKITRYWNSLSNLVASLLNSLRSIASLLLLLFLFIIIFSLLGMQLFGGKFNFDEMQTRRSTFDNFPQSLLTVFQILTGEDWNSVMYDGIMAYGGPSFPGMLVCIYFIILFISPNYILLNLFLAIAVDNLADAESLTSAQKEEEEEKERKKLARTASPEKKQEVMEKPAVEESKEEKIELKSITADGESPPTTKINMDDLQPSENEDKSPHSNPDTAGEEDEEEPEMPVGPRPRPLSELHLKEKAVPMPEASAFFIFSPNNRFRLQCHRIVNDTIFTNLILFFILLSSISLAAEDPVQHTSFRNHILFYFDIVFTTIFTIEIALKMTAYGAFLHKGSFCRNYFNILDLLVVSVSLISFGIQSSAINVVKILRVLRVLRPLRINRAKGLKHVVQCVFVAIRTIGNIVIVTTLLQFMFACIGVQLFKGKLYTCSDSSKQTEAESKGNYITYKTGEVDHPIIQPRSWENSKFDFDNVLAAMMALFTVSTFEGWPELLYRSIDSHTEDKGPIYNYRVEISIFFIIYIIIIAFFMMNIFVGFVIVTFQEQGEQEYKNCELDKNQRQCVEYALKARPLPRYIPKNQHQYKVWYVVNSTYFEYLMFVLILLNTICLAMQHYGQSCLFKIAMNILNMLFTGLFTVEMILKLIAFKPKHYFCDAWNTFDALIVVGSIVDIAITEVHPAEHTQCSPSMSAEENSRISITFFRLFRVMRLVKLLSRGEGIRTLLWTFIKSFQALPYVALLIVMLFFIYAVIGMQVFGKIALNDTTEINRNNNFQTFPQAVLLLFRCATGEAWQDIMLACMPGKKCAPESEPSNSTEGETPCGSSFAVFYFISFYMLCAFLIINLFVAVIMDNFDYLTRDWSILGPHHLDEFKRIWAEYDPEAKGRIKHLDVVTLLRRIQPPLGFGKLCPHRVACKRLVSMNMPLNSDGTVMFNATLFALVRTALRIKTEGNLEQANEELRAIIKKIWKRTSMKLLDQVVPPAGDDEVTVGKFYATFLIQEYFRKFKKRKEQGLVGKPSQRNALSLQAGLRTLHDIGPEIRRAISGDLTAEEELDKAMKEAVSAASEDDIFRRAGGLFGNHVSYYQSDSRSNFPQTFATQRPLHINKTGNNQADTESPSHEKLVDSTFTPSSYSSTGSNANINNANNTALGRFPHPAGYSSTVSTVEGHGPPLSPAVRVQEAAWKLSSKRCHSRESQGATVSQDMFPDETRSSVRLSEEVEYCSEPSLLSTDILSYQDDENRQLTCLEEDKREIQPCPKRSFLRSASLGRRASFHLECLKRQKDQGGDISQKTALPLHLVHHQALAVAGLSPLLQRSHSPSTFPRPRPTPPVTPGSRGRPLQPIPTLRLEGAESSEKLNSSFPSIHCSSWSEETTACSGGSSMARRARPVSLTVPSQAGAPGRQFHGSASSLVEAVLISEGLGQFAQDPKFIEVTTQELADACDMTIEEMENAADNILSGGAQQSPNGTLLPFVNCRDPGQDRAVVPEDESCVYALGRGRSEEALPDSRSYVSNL
Chain of Proto-oncogene tyrosine-protein kinase receptor Ret (Homo sapiens) (P07949 whole entry): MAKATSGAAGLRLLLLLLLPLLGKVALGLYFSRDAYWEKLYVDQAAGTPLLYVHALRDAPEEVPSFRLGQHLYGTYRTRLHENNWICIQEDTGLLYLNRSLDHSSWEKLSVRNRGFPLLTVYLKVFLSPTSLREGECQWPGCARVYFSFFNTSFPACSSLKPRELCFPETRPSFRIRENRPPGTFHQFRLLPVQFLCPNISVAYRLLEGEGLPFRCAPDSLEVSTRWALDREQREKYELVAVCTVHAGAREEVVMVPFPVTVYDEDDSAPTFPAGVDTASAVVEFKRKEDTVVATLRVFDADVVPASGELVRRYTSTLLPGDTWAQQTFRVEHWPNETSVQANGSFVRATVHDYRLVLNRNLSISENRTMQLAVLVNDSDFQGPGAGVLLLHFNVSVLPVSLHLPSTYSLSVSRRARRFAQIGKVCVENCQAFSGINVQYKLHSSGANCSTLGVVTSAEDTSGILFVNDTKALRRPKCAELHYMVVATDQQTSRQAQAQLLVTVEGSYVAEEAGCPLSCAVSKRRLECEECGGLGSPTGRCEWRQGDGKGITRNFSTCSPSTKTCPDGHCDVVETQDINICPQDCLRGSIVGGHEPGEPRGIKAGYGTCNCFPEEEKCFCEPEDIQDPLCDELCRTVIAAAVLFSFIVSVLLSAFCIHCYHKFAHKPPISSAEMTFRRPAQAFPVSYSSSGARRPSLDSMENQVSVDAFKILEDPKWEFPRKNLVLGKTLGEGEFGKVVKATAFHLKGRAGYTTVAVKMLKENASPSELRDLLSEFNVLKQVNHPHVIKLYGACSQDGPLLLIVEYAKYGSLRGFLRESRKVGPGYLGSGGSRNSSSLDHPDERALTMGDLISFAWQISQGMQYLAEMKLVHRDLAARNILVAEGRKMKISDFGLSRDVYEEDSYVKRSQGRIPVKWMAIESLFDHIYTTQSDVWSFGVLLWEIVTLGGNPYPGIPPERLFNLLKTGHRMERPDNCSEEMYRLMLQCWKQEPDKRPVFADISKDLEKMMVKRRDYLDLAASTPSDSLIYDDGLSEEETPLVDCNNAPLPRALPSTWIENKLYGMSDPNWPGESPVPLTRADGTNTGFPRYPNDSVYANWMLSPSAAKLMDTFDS
Chain of Chymase (Homo sapiens) (P23946 whole entry): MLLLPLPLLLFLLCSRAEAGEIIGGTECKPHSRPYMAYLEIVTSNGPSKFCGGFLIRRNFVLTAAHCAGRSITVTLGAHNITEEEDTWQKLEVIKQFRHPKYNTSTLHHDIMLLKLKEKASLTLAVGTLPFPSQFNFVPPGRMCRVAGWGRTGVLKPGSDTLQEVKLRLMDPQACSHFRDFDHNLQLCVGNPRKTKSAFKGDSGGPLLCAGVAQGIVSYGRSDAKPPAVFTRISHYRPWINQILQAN

CCC(F)(F)c1cc(N2CCC(S(C)(=O)=O)CC2)nc2sc(C(N)=O)c(N)c12 [BI-605906]
70% (not active): activity at 100 µM ([2]; compound concentration 100 uM)
99% (not active): activity at 10 µM ([2]; compound concentration 10 uM)
active: residual activity ([7]; Compound concentration 10.0 uM) 32% | residual activity [12] 40.1%
inactive: residual activity ([1]; Compound concentration 10.0 uM) 104% | residual activity [1, 36] 72% | residual activity [3] 103% | residual activity [4] 103% | residual activity [5] 85% | residual activity [6] 84% | residual activity ([7]; Compound concentration 1.0 uM) 60% | residual activity [8] 88% | residual activity [9] 74.4% | residual activity [10] 61.7% | residual activity [11] 98.1% | inhibition [13] 13.7% | inhibition [14] 44.6% | residual activity [15] 108% | residual activity ([16]; Compound concentration 10.0 uM) 93% | residual activity [16, 36] 108% | residual activity (Chymase (Homo sapiens)) 93% | residual activity [17] 99% | residual activity [18] 96% | residual activity [19] 87% | residual activity [20] 92% | residual activity [21] 99% | residual activity [22] 93% | residual activity [23] 91% | residual activity ([24]; Compound concentration 1.0 uM) 95% | residual activity ([24]; Compound concentration 10.0 uM) 80% | residual activity ([25]; Compound concentration 1.0 uM) 96% | residual activity ([25]; Compound concentration 10.0 uM) 84% | residual activity ([26]; Compound concentration 1.0 uM) 92% | residual activity ([26]; Compound concentration 10.0 uM) 107% | residual activity [27] 101% | residual activity [28] 94% | residual activity [29] 89% | residual activity [30] 98% | residual activity [31] 93% | residual activity [32] 93% | residual activity [33] 87% | residual activity ([34]; Compound concentration 1.0 uM) 98% | residual activity ([34]; Compound concentration 10.0 uM) 71% | residual activity ([35]; Compound concentration 1.0 uM) 89% | residual activity ([35]; Compound concentration 10.0 uM) 102%

From ChEMBL document CHEMBL4800722, “Data for DCP probe BI 605906” (2021)
